Experimental data from US20260055441A1, “A PCR-ELISA ANALOGOUS ANTIBODY-FREE METHOD FOR DETECTING A TARGET NUCLEIC ACID IN A SAMPLE” (UNIVERSITÄT HEIDELBERG, priority 2022, published 2026).
“Also recorded” adds a separate entry of the source. Residues, ends and D or L forms follow the SMILES beside them. *: point of attachment. AMC = Cc1cc(=O)oc2cc(N*)ccc12; Cbz = O=C(OCc1ccccc1)*

How the values were obtained:
latent papain P13 [1] = target: T1, latent papain P13 (Carica papaya, UniProt P00784); experiment: Screening of peptide-based papain activators, rates normalized to cysteine ethyl ester (FIG. 19, FIG. 20); assay type: biochemical
T1 construct: purchased Sigma Aldrich (Munich, Germany); host or cells: Papaya latex (natural source)
T1 sequence (P00784 134-345): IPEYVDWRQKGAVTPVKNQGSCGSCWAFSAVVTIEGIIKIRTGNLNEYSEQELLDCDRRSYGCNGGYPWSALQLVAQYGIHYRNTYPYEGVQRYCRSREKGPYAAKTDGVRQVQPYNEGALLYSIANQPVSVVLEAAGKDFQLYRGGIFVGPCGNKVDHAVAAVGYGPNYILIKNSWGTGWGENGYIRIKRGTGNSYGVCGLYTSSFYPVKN
Experimental: L-Cysteine ethyl ester was utilized in identical peptide concentrations as a standard in order to calculate normalized reaction rates for each synthesized peptide.
[…] The assays were conducted in well buffer with 1 nM latent papain P13. In order to give a clear overview, only the normalized rates for activator concentrations of 50 nM are depicted and compared.
Additionally, 1 μM TCEP was added to each well of the cysteine concentration series in order to examine the influence of TCEP on reaction rates of thiols.
Different assays of reactivating latent papain in solution were conducted in the course of this work. Various buffer compositions, supplements, 96 well plates, substrates, activators, concentrations as well as different latent papain forms were compared. In order to get an overview of all experiments, a standard method is described in the following and variations of this method are subsequently defined. First, the well buffer was prepared (0.1 M phosphate buffer pH 7, 4 mM EDTA, 0.01% Brij35). A 1 mM TCEP solution was prepared with 3 mM NaOH in 0.1 M Tris-HCl buffer pH 8. Papain substrate (Z-Phe-Arg-AMC or Suc-Leu-Leu-Val-Tyr-AMC) was prepared as a 200 μM solution in water and transferred equally to a PCR strip. Three serial dilutions of the activating agent with well buffer were used in the different experiments and the corresponding pipetting schemes are shown in Table 9. Papain was diluted to 0.1 μM with well buffer and transferred equally to a PCR strip. […] 342.4 μL of TCEP containing well buffer was transferred to each well, followed by 3.8 μL papain solution. After mixing, 30 μL of the prepared activator concentrations (see Table 9) were added and mixed. In the last step, 3.8 μL of the substrate solution was added and mixed, to yield a final well composition of 0.1 M phosphate buffer pH 7, 1 nM papain, 2 μM substrate, activator (see Table 9), 4 mM EDTA, 0.01% Brij35 and 1 μM TCEP. For experiments with only one activator concentration of 10 μM, the transferred well buffer for each well was 368.6 μL, followed by 3.8 μL of papain, substrate and activator (1 mM in well buffer) respectively.

latent papain = target: T2, latent papain (Carica papaya, UniProt P00784); experiment: Latent papain reactivation with selenium/thiol activators in presence of TCEP, rates normalized to blank (FIG. 22); assay type: biochemical; settings: latent papain 1 nM; for activator efficiency (normalized rate/rate blank), in words: 50 pM-100 nM activator, 1 μM TCEP (FIG. 22)
T2 construct: purchased Sigma Aldrich (Munich, Germany); host or cells: Papaya latex (natural source)
T2 sequence (P00784 134-345): T1 sequence (P00784 134-345)
Experimental: To this end, cysteine ethyl ester, DTT, DTBA (9) and SeDTBA (11) were chosen for a direct comparison. […] The resulting reaction rates were normalized against the background activity and the resulting normalized rates are presented in FIG. 22 for the concentration range of 50 pM-100 nM.
Different assays of reactivating latent papain in solution were conducted in the course of this work. Various buffer compositions, supplements, 96 well plates, substrates, activators, concentrations as well as different latent papain forms were compared. In order to get an overview of all experiments, a standard method is described in the following and variations of this method are subsequently defined. First, the well buffer was prepared (0.1 M phosphate buffer pH 7, 4 mM EDTA, 0.01% Brij35). A 1 mM TCEP solution was prepared with 3 mM NaOH in 0.1 M Tris-HCl buffer pH 8. Papain substrate (Z-Phe-Arg-AMC or Suc-Leu-Leu-Val-Tyr-AMC) was prepared as a 200 μM solution in water and transferred equally to a PCR strip. Three serial dilutions of the activating agent with well buffer were used in the different experiments and the corresponding pipetting schemes are shown in Table 9. Papain was diluted to 0.1 μM with well buffer and transferred equally to a PCR strip. […] After mixing, 30 μL of the prepared activator concentrations (see Table 9) were added and mixed. In the last step, 3.8 μL of the substrate solution was added and mixed, to yield a final well composition of 0.1 M phosphate buffer pH 7, 1 nM papain, 2 μM substrate, activator (see Table 9), 4 mM EDTA, 0.01% Brij35 and 1 μM TCEP. For experiments with only one activator concentration of 10 μM, the transferred well buffer for each well was 368.6 μL, followed by 3.8 μL of papain, substrate and activator (1 mM in well buffer) respectively.

papain [2] = target: T3, papain (Carica papaya, UniProt P00784); settings: Ménard et al. 1990; cited from earlier work
T3 sequence (P00784 134-345): T1 sequence (P00784 134-345)

[3] = Jacob et al., 2003; cited from earlier work
papain [4] = target: T3, papain; settings: literature (Whitesides group; Lukesh et al., 2012); cited from earlier work
[5] = cited from earlier work
latent papain P13 [6] = target: T1, latent papain P13; experiment: Latent papain reactivation assay with thiol activators at 10 μM, rates normalized to 10 μM cysteine (FIG. 18); assay type: biochemical; settings: activator 10 μM, latent papain 1 nM, Z-Phe-Arg-AMC 2 μM, pH 7
Experimental: All following described fluorometric assays (Examples 1-3) are based on the reaction of reversibly inactivated papain (latent papain) with an activator containing either sulfur or selenium (with the exception of TCEP). Different latent papain forms, buffer compositions and activators in various concentrations were compared. Papain was hereby transferred in buffer (standard well buffer consisted of 0.1 M phosphate pH 7, 4 mM EDTA, 0.01% Brij35 and if activators contained diselenides, 1 μM TCEP) mixed with activator and substrate inside 96 well plates (without prior washing of the plates). After reactivation, active papain hydrolyses the substrate Z-Phe-Arg-AMC (2 μM) and the resulting fluorescence was tracked every minute for 2 h. The slopes of the corresponding curves were calculated for the linear portion within the first 30 minutes and the resulting reaction rates were directly compared. Resulting reaction rates directly reflect reactivation efficiencies of each activator under each reaction condition. […] After addition of activator a fraction of latent papain is immediately reactivated in rather non-stoichiometric proportions. Complete reactivation can generally only be achieved with great excess of activator. The partial reactivation with smaller activator amounts appears almost instantaneously because the resulting reaction curve show linear progression from the start except for very low activator concentrations. After reactivation, all different latent papain forms result in the same active enzyme. If different latent papain forms show different reaction rates in identical activation assays, the efficiency of reactivation with the applied activator can be deduced. The same applies for reactivation of one latent papain form with different activators or reaction conditions.
Several thiol compounds and cysteine containing peptide activators (see Example 4.1) were compared for their potential to reactivate latent papain. To this end, the thiol compounds and cysteine containing peptide activators were utilized in reactivation assays (see Example 5, 5.2.2.2, fluorometric method 2) of papain P13 (see Example 1, 1.2) with an activator concentration of 10 μM. For thiols not completely soluble in phosphate buffer pH 7 at high concentrations, the 1 mM stock solution was prepared in DMSO, resulting in 1% DMSO in the reaction mixture. In order to normalize the observed reaction rates between assays, a 10 μM cysteine sample was additionally measured in every assay and reaction rates of the examined thiols were divided through the reaction rates produced by the 10 μM cysteine standard. Additionally, a measurement with 1 mM cysteine was performed in order to achieve maximal papain activation and therefore the maximal reaction rate within the confines of the assay. The resulting normalized rates are compared in FIG. 18.
Different assays of reactivating latent papain in solution were conducted in the course of this work. Various buffer compositions, supplements, 96 well plates, substrates, activators, concentrations as well as different latent papain forms were compared. In order to get an overview of all experiments, a standard method is described in the following and variations of this method are subsequently defined. First, the well buffer was prepared (0.1 M phosphate buffer pH 7, 4 mM EDTA, 0.01% Brij35). A 1 mM TCEP solution was prepared with 3 mM NaOH in 0.1 M Tris-HCl buffer pH 8. Papain substrate (Z-Phe-Arg-AMC or Suc-Leu-Leu-Val-Tyr-AMC) was prepared as a 200 μM solution in water and transferred equally to a PCR strip. Three serial dilutions of the activating agent with well buffer were used in the different experiments and the corresponding pipetting schemes are shown in Table 9. Papain was diluted to 0.1 μM with well buffer and transferred equally to a PCR strip. After preparation of the abovementioned solutions, TCEP (1 mM solution) was added to well buffer to yield a final TCEP concentration of 1.1 μM. […]

H2N-CLR-CONH2 = target: T4, H2N-CLR-CONH2
T4 chain: CLR

H2N-CFR-CONH2 = target: T5, H2N-CFR-CONH2
T5 chain: CFR

[7] = target: T6, dU-triazole-PEG3-ULR dimer (21) (not fully specified)
T6 chain: ULR

[8] = FIG. 20, concentration series 50 nM-10 μM
[9] = concentration series 50 nM-10 μM, papain P13 1 nM (FIG. 20)

CCOC(=O)[C@@H](N)CS.Cl [L-cysteine ethyl ester, L-Cysteine ethyl ester hydrochloride]
potency relative to (L-)cysteine (latent papain P13 [1]; [8]): approximately 2.25 times
activator efficiency (normalized rate/rate blank), in words (latent papain): no substantial rate increase

Cc1cc(=O)oc2cc(NC(=O)[C@H](CCCNC(=N)N)NC(=O)[C@H](Cc3ccccc3)NC(=O)OCc3ccccc3)ccc12 [Z-Phe-Arg-AMC, Z-Phe-Arg 7-amido-4-methylcoumarin] (Cbz-Phe-Arg-{AMC})
Km (papain [2]): 420 µM
kcat (papain [2]): 52 s⁻¹

N[C@@H](CS)C(=O)O [L-cysteine]
normalized rate compared to cysteine ethyl ester (latent papain P13 [1]; [9]): around 40%
normalized rate compared to the tripeptide H2N-CLR-CONH2 (latent papain P13 [1]; [9]): around 25%
redox potential E^0′ [3]: −0.233 V

seleno-dithiobutylamin [SeDTBA (11)]
activator efficiency (normalized rate/rate blank), in words (latent papain): second most efficient activator; also recorded: almost twice as high compared to DTBA (9)

O[C@@H](CS)[C@@H](O)CS [DTT]
activator efficiency (normalized rate/rate blank), in words (latent papain): no substantial rate increase

N[C@H](CS)CCS [DTBA (9), dithiobutylamine]
papain activation rate compared to DTT (papain [4]): 14 times
rate relative to DTT (latent papain; activator 50 nM, 1 μM TCEP): 13.6 times

N[C@@H](C[SeH])C(=O)O [selenocysteine]
activator efficiency, in words (latent papain P13 [1]; [8]): more potent activators compared to the tripeptide
rate relative to the tripeptide H2N-CLR-CONH2 (latent papain P13 [1]; concentration series 50 nM-10 μM (FIG. 20), selenocysteine prepared with TCEP): 6.5 times
pKa ([5]; Huber et al. 1967): 5.2
redox potential E^0′ [3]: −0.488 V

CN(C)C(=O)[C@H](S)CC[C@H](S)C(=O)N(C)C [DTA, meso-2,5-dimercapto-N,N,N,N-tetramethyladipamide]
papain activation rate compared to DTT (papain [4]): 4.5 times

O=[N+]([O-])c1ccc(S)nc1 [2-mercapto-5-nitropyridine, 2-Mercapto-5-nitropyridine]
reaction rate compared to L-cysteine (latent papain P13 [6]): less than 15%
pKa of thiol, as discussed in text [5]: 7.1

CN(C(=O)CS)N(C)C(=O)CS [DMH, N,N-dimethyl-N,N′-bis(mercaptoacetyl)hydrazine]
papain activation rate compared to DTT (papain [4]): 32 times

B1: latent papain, reversibly inactivated with S-methyl methanethiosulfonate (-S-S-CH3) (protein)
chain: T1 sequence (P00784 134-345)
normalized ratio rate/rate 10 uM cysteine of substrate hydrolysis after reactivation of latent papain (1 nM), activator 10 uM (fold of the rate with L-cysteine) (H2N-CLR-CONH2): 2
normalized ratio rate/rate 10 uM cysteine of substrate hydrolysis after reactivation of latent papain (1 nM), activator 10 uM (fold of the rate with L-cysteine) (H2N-CFR-CONH2): 2
normalized ratio rate/rate blank of substrate hydrolysis after reactivation of latent papain (1 nM) with activator 1-15 nM [7]: The normalized reaction rates for papain P20 now appeared the highest of all papain forms
